Reference: patent US11426473B2, “Nitrogen-containing compound or salt thereof, or metal complex thereof” (FUJIFILM Corporation, priority 2013, dated 2022)
Where two headings read alike, the source gives them in different places.

Assays:
[1] = target: T1, Integrin αvβ3 (Homo sapiens, UniProt P05106+P06756); assay: Integrin αvβ3 binding affinity test
T1 construct: purchased Chemicon International, Inc
Experimental: (§1) […] αvβ3 (Chemicon International, Inc.) was immobilized on each well of a 96-well plate (Corning Inc.). Each well was blocked with a 1% Block Ace (DS Pharma Biomedical Co., Ltd) solution and then washed with T-PBS (PBS containing 0.05% Tween 20). Evaluation compound solutions having a 2-fold concentration (10 concentrations of 3.16-fold dilutions from 0.3 μmol/L, buffer (20 mM Tris-HCl pH 7.5, 150 mM NaCl, 1 mM CaCl2, 1 mM MgCl2, and 1 mM MnCl2)) and a 4 μg/mL biotinylated vitronectin solution (vitronectin (Upstate Biotechnology Inc.) was labeled with EZ-Link Sulfo-NHS-Biotinylation Kit (Pierce/Thermo Fisher Scientific Inc.) and then concentration-adjusted) were each added at 50 μL/well, and the plate was shaken at room temperature for 2 hours. After washing with T-PBS, a 0.2 μg/mL avidin peroxidase (Pierce/Thermo Fisher Scientific Inc.) solution was added thereto, and the plate was shaken at room temperature for 1 hour. After washing with T-PBS, color was developed by an o-phenylenediamine (Sigma-Aldrich Inc.) solution (the reaction was terminated by the addition of 4 mol/L sulfuric acid), and the absorbance was measured (490 nm, Reference: 595 nm). The IC50 value was calculated using XLfit 3.0 (ID Business Solutions Ltd.). RGDfV (Bachem AG) was measured in duplicate as a QC sample for each plate.

[2] = target: T2, Integrin αvβ5 (Homo sapiens, UniProt P06756+P18084); assay: Integrin αvβ5 binding affinity test
T2 construct: purchased Chemicon International, Inc
T2 sequence (P06756 31-889 limits assumed): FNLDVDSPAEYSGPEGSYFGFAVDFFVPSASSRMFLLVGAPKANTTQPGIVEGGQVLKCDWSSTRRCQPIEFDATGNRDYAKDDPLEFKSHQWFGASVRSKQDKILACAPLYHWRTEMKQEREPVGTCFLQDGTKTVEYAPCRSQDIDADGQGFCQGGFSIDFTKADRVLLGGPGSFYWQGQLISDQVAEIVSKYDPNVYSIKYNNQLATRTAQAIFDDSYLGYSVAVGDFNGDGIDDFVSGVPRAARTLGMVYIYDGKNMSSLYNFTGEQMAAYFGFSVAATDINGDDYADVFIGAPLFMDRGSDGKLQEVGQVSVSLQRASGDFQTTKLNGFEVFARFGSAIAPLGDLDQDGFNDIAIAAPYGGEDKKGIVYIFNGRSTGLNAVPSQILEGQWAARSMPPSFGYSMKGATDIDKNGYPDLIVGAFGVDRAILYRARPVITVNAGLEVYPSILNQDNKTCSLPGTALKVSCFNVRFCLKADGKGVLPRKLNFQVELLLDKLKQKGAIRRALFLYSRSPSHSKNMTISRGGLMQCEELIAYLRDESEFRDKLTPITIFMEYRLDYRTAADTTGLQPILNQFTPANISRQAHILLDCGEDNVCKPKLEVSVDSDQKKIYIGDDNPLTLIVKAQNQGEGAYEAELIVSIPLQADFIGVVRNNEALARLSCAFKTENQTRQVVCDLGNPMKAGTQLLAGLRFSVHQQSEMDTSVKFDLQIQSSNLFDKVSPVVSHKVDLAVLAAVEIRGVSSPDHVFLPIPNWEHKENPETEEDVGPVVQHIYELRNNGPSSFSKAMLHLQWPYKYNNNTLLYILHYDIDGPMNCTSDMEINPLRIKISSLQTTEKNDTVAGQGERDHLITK
T2 sequence (P06756 891-1048 partner limits assumed): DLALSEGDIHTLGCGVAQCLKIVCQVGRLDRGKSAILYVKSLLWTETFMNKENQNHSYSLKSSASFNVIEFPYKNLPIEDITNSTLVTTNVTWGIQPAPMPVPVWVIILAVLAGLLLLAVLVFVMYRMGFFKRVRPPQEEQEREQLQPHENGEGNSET
T2 sequence (P18084 24-799): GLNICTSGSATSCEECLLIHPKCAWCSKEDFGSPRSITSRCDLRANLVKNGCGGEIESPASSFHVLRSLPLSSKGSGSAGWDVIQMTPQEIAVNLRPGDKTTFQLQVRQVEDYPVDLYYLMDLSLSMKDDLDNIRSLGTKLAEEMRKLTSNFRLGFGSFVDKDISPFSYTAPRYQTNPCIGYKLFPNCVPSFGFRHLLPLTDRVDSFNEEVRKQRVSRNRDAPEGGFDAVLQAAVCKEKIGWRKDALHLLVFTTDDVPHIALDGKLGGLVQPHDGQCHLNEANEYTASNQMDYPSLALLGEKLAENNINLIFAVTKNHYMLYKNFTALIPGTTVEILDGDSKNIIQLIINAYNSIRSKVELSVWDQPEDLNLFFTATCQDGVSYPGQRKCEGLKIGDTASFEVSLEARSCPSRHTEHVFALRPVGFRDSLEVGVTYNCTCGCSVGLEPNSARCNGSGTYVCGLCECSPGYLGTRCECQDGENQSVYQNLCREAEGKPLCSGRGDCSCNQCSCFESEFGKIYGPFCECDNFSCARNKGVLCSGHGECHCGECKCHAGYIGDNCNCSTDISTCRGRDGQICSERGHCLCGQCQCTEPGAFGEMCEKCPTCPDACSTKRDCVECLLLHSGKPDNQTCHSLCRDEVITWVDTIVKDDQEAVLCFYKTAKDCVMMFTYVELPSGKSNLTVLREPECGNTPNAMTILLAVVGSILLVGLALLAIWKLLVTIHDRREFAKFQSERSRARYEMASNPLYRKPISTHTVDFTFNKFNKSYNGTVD
Experimental: as §1, with “αvβ5” for “αvβ3”, “PBST (10 mM Na2HPO4 pH 7.5, 150 mM NaCl, and 0.01%” for “T-PBS (PBS containing 0.05%”, “PBST,” for “T-PBS,”

[3] = test system: U87MG cells subcutaneous tumor; assay: Concentration of radioactivity in tumor of labeled compounds (Test Example 4); format: in vivo, mouse; conditions: tail vein, 111In 740 kBq, 64Cu and 90Y 500 kBq
Experimental: U87MG cells were subcutaneously transplanted at 1×10^7 cells/mouse to the right flank of Balb/cAJcl-nu/nu (CLEA Japan, Inc. or Japan SLC, Inc., 6 to 9 weeks old). After 2 to 3 weeks, the mice were divided into groups each involving 3 individuals per point in time when their tumors became 200 to 500 mm^3. The ^111In-labeled compound (740 kBq) was administered to the tail veins of the mice.
After a given time, the animals were sacrificed to extract their tumors. The weights of the tumors were measured, and the radioactivity was measured using a gamma counter to calculate the concentration of radioactivity in the tumors (% ID/g). In the same way as above, the concentration of radioactivity in the tumors (% ID/g) was calculated for the ^64Cu-labeled compound (500 kBq) and the ^90Y-labeled compound (500 kBq).

[4] = inhibition of biotinylated vitronectin binding to immobilized αvβ3, read-out: IC50 value αv β3
[5] = inhibition of biotinylated vitronectin binding to immobilized αvβ5, read-out: IC50 value αvβ5

T1 sequence (P06756 31-889 limits assumed): as the sequence (P06756 31-889 limits assumed) above
T1 sequence (P06756 891-1048 partner limits assumed): as the sequence (P06756 891-1048 partner limits assumed) above
T1 sequence (P05106 27-788): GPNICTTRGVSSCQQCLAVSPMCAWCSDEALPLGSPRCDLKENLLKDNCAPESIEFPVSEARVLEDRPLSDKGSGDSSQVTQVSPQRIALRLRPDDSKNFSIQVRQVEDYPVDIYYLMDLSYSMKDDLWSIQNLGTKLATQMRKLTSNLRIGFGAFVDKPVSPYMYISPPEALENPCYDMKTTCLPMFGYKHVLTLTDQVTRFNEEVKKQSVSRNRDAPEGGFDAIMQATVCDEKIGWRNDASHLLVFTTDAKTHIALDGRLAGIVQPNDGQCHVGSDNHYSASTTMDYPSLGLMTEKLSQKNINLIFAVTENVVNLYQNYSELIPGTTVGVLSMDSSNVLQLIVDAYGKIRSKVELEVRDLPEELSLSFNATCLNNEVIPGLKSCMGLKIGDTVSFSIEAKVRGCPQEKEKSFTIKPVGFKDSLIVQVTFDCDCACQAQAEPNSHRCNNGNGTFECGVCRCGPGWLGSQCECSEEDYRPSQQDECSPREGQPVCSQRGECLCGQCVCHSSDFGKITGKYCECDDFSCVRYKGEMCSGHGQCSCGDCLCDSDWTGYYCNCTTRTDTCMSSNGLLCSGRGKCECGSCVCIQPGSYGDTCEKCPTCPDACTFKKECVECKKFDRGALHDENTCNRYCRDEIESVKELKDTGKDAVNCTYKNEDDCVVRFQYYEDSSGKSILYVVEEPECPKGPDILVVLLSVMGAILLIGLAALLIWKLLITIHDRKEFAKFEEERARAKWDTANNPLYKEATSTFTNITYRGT

Compound	IC50 [1, 4]	IC50 [2, 5]	other results
Cc1cc(OCCCC(=O)NCCNC(=O)[C@H](CS(=O)(=O)O)NC(=O)CCC(C(=O)O)N2CCCN3CCN(CCCN(CC(=O)O)CC3)CC2)cc(C)c1S(=O)(=O)N[C@@H](CNC(=O)CCCCc1ccc2c(n1)NCCC2)C(=O)O (single isomer, unassigned) [Ab9-a]	< 1 nM	< 1 nM	–
Cc1cc(OCCCC(=O)NCCNC(=O)[C@H](CS(=O)(=O)O)NC(=O)CCC(C(=O)O)N2CCCN3CCN(CCCN(CC(=O)O)CC3)CC2)cc(C)c1S(=O)(=O)N[C@@H](CNC(=O)CCCCc1ccc2c(n1)NCCC2)C(=O)O (single isomer, unassigned) [Ab9-b]	< 1 nM	< 1 nM	–
Cc1cc(OCCCC(=O)NCCNC(=O)C(CS(=O)(=O)O)NC(=O)CN2CCN3CCN4CCN(CC2)CC(=O)[O][In]([O]C(=O)C3)[O]C(=O)C4)cc(C)c1S(=O)(=O)NC(CNC(=O)CCCCc1ccc2c(n1)NCCC2)C(=O)O (stereo not shown) [AA]	–	–	IC50 [1]: < 1 nM; IC50 [2]: < 1 nM
Cc1cc(OCCCC(=O)NCCNC(=O)[C@H](CS(=O)(=O)O)NC(=O)CC[C@H](C(=O)O)N2CCN(CC(=O)O)CCN(CC(=O)O)CC2)cc(C)c1S(=O)(=O)N[C@@H](CNC(=O)CCCCc1ccc2c(n1)NCCC2)C(=O)O [Aa7, 2,2′-(7-((R)-1-carboxy-4-(((R)-1-((2-(4-(4-(N—((S)-1-carboxy-2-(5-(5,6,7,8-tetrahydro-1,8-naphthyridin-2-yl)pentanamido)ethyl)sulfamoyl)-3,5-dimethylphenoxy)butanamido)ethyl)amino)-1-oxo-3-sulfopropan-2-yl)amino)-4-oxobutyl)-1,4,7-triazonane-1,4-diyl)diacetic acid]	< 1 nM	< 1 nM	–
Cc1cc(OCCCC(=O)NCCNC(=O)COCCOCCNC(=O)CN2CCN3CCN4CCN(CC2)CC(=O)[O][In]([O]C(=O)C3)[O]C(=O)C4)cc(C)c1S(=O)(=O)NC(CNC(=O)c1ccc(CCc2ccc3c(n2)NCCC3)cc1)C(=O)O (stereo not shown) [BB]	–	–	IC50 [1]: < 1 nM; IC50 [2]: < 1 nM
Cc1cc(OCCCC(=O)NCCNC(=O)[C@H](CS(=O)(=O)O)NC(=O)[C@H](CS(=O)(=O)O)NC(=O)CN2CCN(CC(=O)O)CCN(CC(=O)O)CCN(CC(=O)O)CC2)cc(C)c1S(=O)(=O)N[C@@H](CNC(=O)c1ccc(CCc2ccc3c(n2)NCCC3)cc1)C(=O)O [Compound A8, 2,2′,2″-(10-((4R,7R)-16-(4-(N—((S)-1-carboxy-2-(4-(2-(5,6,7,8-tetrahydro-1,8-naphthyridin-2-yl)ethyl)benzamido)ethyl)sulfamoyl)-3,5-dimethylphenoxy)-2,5,8,13-tetraoxo-4,7-bis(sulfomethyl)-3,6,9,12-tetraazahexadecyl)-1,4,7,10-tetraazacyclododecane-1,4,7-triyl)triacetic acid]	< 1 nM	< 1 nM	–
Cc1cc(OCCCC(=O)NCCNC(=O)[C@H](CS(=O)(=O)O)NC(=O)CN2CCN(CC(=O)O)CCN(CC(=O)O)CCN(CC(=O)O)CC2)cc(C)c1S(=O)(=O)N[C@@H](CNC(=O)c1ccc(CCc2ccc3c(n2)NCCC3)cc1)C(=O)O [Compound B2, 2,2′,2″-(10-(2-(((R)-1-((2-(4-(4-(N—((S)-1-carboxy-2-(4-(2-(5,6,7,8-tetrahydro-1,8-naphthyridin-2-yl)ethyl)benzamido)ethyl)sulfamoyl)-3,5-dimethylphenoxy)butanamido)ethyl)amino)-1-oxo-3-sulfopropan-2-yl)amino)-2-oxoethyl)-1,4,7,10-tetraazacyclododecane-1,4,7-triyl)triacetic acid]	< 1 nM	< 1 nM	–
Cc1cc(OCCCC(=O)NCCNC(=O)COCCOCCNC(=O)CN2CCN(CC(=O)O)CCN(CC(=O)O)CCN(CC(=O)O)CC2)cc(C)c1S(=O)(=O)N[C@@H](CNC(=O)c1ccc(CCc2ccc3c(n2)NCCC3)cc1)C(=O)O [Compound D3, (S)-2,2′,2′-(10-(19-(4-(N-(1-carboxy-2-(4-(2-(5,6,7,8-tetrahydro-1,8-naphthyridin-2-yl)ethyl)benzamido)ethyl)sulfamoyl)-3,5-dimethylphenoxy)-2,11,16-trioxo-6,9-dioxa-3,12,15-triazanonadecyl)-1,4,7,10-tetraazacyclododecane-1,4,7-triyl)triacetic acid]	< 1 nM	< 1 nM	–
Cc1cc(OCCCC(=O)NCCNC(=O)COCCOCCNC(=O)COCCOCCNC(=O)CN2CCN(CC(=O)O)CCN(CC(=O)O)CCN(CC(=O)O)CC2)cc(C)c1S(=O)(=O)N[C@@H](CNC(=O)c1ccc(CCc2ccc3c(n2)NCCC3)cc1)C(=O)O [Compound F3, (S)-2,2′,2″-(10-(28-(4-(N-(1-carboxy-2-(4-(2-(5,6,7,8-tetrahydro-1,8-naphthyridin-2-yl)ethyl)benzamido)ethyl)sulfamoyl)-3,5-dimethylphenoxy)-2,11,20,25-tetraoxo-6,9,15,18-tetraoxa-3,12,21,24-tetraazaoctacosyl)-1,4,7,10-tetraazacyclododecane-1,4,7-triyl)triacetic acid]	< 1 nM	< 1 nM	–
Cc1cc(OCCCC(=O)NCCNC(=O)COCCOCCNC(=O)[C@H](CS(=O)(=O)O)NC(=O)CN2CCN(CC(=O)O)CCN(CC(=O)O)CCN(CC(=O)O)CC2)cc(C)c1S(=O)(=O)N[C@@H](CNC(=O)c1ccc(CCc2ccc3c(n2)NCCC3)cc1)C(=O)O [Compound G3, 2,2′,2″-(10-((R)-22-(4-(N—((S)-1-carboxy-2-(4-(2-(5,6,7,8-tetrahydro-1,8-naphthyridin-2-yl)ethyl)benzamido)ethyl)sulfamoyl)-3,5-dimethylphenoxy)-2,5,14,19-tetraoxo-4-(sulfomethyl)-9,12-dioxa-3,6,15,18-tetraazadocosyl)-1,4,7,10-tetraazacyclododecane-1,4,7-triyl)triacetic acid]	< 1 nM	< 1 nM	–
Cc1cc(OCCCC(=O)NCCNC(=O)[C@H](CS(=O)(=O)O)NC(=O)CCC(NC(=O)CN2CCN(CC(=O)O)CCN(CC(=O)O)CCN(CC(=O)O)CC2)C(=O)N[C@@H](CS(=O)(=O)O)C(=O)NCCNC(=O)CCCOc2cc(C)c(S(=O)(=O)N[C@@H](CNC(=O)c3ccc(CCc4ccc5c(n4)NCCC5)cc3)C(=O)O)c(C)c2)cc(C)c1S(=O)(=O)N[C@@H](CNC(=O)c1ccc(CCc2ccc3c(n2)NCCC3)cc1)C(=O)O (stereo partly shown) [Compound H9]	< 1 nM	< 1 nM	–
O=C(O)C[C@H](NC(=O)c1ccc(CCc2ccc3c(n2)NCCC3)cc1)c1ccc(OCCCC(=O)NCCNC(=O)[C@H](CS(=O)(=O)O)NC(=O)[C@H](CS(=O)(=O)O)NC(=O)CN2CCN(CC(=O)O)CCN(CC(=O)O)CCN(CC(=O)O)CC2)c(F)c1 [Compound Q12, 2,2′,2″-(10-((4R,7R)-16-(4-((S)-2-carboxy-1-(4-(2-(5,6,7,8-tetrahydro-1,8-naphthyridin-2-yl)ethyl)benzamido)ethyl)-2-fluorophenoxy)-2,5,8,13-tetraoxo-4,7-bis(sulfomethyl)-3,6,9,12-tetraazahexadecyl)-1,4,7,10-tetraazacyclododecane-1,4,7-triyl)triacetic acid]	< 1 nM	–	–
Cc1cc(OCCCC(=O)NCCNC(=O)C(CS(=O)(=O)O)NC(=O)C(CS(=O)(=O)O)NC(=O)CN2CCN(CC(=O)[O-])CCN(CC(=O)[O-])CCN(CC(=O)[O-])CC2)cc(C)c1S(=O)(=O)NC(CNC(=O)c1ccc(CCCNc2ccccn2)cc1)C(=O)O.[111In+3] (stereo not shown) [[^111In]-(Z8)]	–	–	Concentration of radioactivity in tumor ([3]; 4 hours later): 6.95 % ID/g; Concentration of radioactivity in tumor ([3]; 24 hours later): 3.34 % ID/g
